Tests used:
HIV-1 (strain LAV-1) = experiment: anti-HIV-1 assay in PBMC (reverse transcriptase activity); assay type: cell-based; details: Human immunodeficiency virus 1, PBMC, 144 h, read-out: Anti-HIV-1 in PBMC: EC50
in vitro = details: human, pha-stimulated pbmc
[1] = growth / cytotoxicity in Vero cells; details: african green monkey, vero cells
Vero cells = experiment: growth / cytotoxicity in Vero cells; details: Chlorocebus sabaeus, Vero, 96 h, read-out: % Growth inhibition, Vero
[2] = tested on: human peripheral blood mononuclear cells (PBMC); experiment: growth / cytotoxicity in uninfected mitogen stimulated human PBMC; details: 144 h, read-out: % Growth inhibition, PBMC
Mycobacterium avium = experiment: growth index of Mycobacterium avium in Bactec 7H12 Middlebrook broth (14C fatty acid); details: 0.04 μg/ml (FIG. 35)

Cc1cn([C@H]2C[C@H](N=[N+]=[N-])[C@@H](CO)O2)c(=O)[nH]c1=O [AZT, azidothymidine]
EC50 (HIV-1 (strain LAV-1)): 0.0056 µM
CC50 at 144 h (in vitro): > 100 µM
CC50 at 96 h [1]: 50.6 µM
inhibition at 0.1 µM (Vero cells): -1.8%
inhibition at 1 µM (Vero cells): 10.2%
inhibition at 10 µM (Vero cells): 20.7%
inhibition at 50 µM (Vero cells): 47.4%
inhibition at 100 µM (Vero cells): 66.3%
inhibition at 0.1 µM [2]: -8.9%
inhibition at 1 µM [2]: -2.2%
inhibition at 10 µM [2]: 5.5%
inhibition at 50 µM [2]: 16.8%
inhibition at 100 µM [2]: 28.4%

CO[C@H]1/C=C/O[C@@]2(C)Oc3c(C)c(O)c4c(O)c(c(/C=N/N5CCN(C)CC5)c(O)c4c3C2=O)NC(=O)/C(C)=C\C=C\[C@H](C)[C@H](O)[C@@H](C)[C@@H](O)[C@@H](C)[C@H](OC(C)=O)[C@@H]1C [Rifampin, rifampin]
inhibiting growth of M. avium (Mycobacterium avium): effective in inhibiting growth

Reference: patent publication US5674911A, “Antiinfective polyoxypropylene/polyoxyethylene copolymers and methods of use” (Cytrx Corporation, priority 1995, dated 1997)
